Reference: patent publication US5334588A, “Composition for inhibiting transmission of hepatitis B virus” (priority 1991, dated 1994)
Like-named read-outs stand apart in the source and are kept apart here.

Columns and labels:
HSV = test: Toxicity of drugs for HSV, titer on vero cells (Table 7A); assay type: cell-based; conditions: 200 μl of 500 μg/ml stock added to 1 ml virus, 20 min at R.T.; for Titer: read after 48 hours
Method: One ml HSV at 3 × 10^6/ml was incubated with 200 μliters of
drugs each 500 μg/ml stock solution. After 20 minutes at
R.T., the virus was titered on monolayers of vero cells,
incubatwd for 2 hours, then overlayed with methyl cellulose.
Virus titers were read after 48 hours. No drug toxicity* was […]

macrophages = test: Rate of killing of macrophage by drugs, trypan-blue (Table 3B); assay type: cell-based, mouse; conditions: 100 μg; 20 min incubation; control 36% kill
Method: In the experiment, peritonial normal mouse macrophages were enriched by attaching to petri dishes and adjusted to a cell concentration of 5 to 10×10^6 /ml. 0.1 ml aliquots of this suspension were plated in microtiter plates and 10μ and 5μ of each of four samples was added. The control plate received PBS only. After 20 minutes of incubation in a […], the cells were tested for viability using tryphan-blue dye.

H9 cells = conditions: for % Viab (live cells/live & dead) / Viable Cells/ml: 10 min exposure; for % Viab (live cells/live & dead): after 24 h; for Viable Cells/ml: viability after 24 h
Method: The toxicity of the various agents used in the antiviral compositions of the invention to human T4 -lymphocytes (H9 cells and marophages which are the carriers of the AIDS virus) may be relevant to the effectiveness of a drug. This is because killing these cells when present in semen or vaginal fluids may lead to release of virus making it more susceptible to the effects of the drug. With this in mind, the effect of short exposure (10 minutes) of AgSD and other drugs on H9 cells was tested by treating a suspension of H9 cells (1.6×10^6 /ml in HBSS) with […] of each drug or drug combination. After incubating for 10 minutes, the cells were washed twice in thirty volumes of HBSS; resuspended in RPMI 10% FCS+NaPyruvate and plated into 24 well plates at 4×10^5 cells/mi. Cell viability was determined after 24 hours and is reported as numbers of viable cells per ml and viable percentage (live cells/live cells+dead cells) in Table 3A.

Staph. aureus [1] = test: Antibacterial efficacy of coated I.V. catheters, Bioassay A (Table 8); assay type: cell-based; conditions: Polyurethane I.V. catheter, silicone matrix coating; 10^4 CFU Staph. aureus
Excerpt: The coatings were applied by dipping and then drying.
Staph. aureus is used to challenge the I.V. catheter.

[2] = system: ARV-2 strain of AIDS virus; test: Infectivity of ARV-2 strain of AIDS virus in H9 cells (Table 2); assay type: cell-based; conditions: for % Infection: 15 min preincubation, 24 h
Method: A stock solution of virus containing 3 to 5×10^4 infectious virus particles/ml was preincubated with the various drugs as indicated in Table 2 for 15 minutes. The virus sample was then diluted 4-fold in order to reduce the concentrations of the drugs below levels toxic to H9 cells (see Example 3 below) and mixed with 250,000 H9 cells in a total volume of 1 ml. After 24 hours, the cells were assayed to determine the percentage of the culture expressing viral antigen. This time interval was selected as it allows for only a single round of viral infection to have occurred such that the number of cells infected was a direct reflection of the number of infectious virions present in the original sample.

[3] = system: Rauscher Leukemia Virus (RLV); test: Infectivity of Rauscher Leukemia Virus (RVB3) in mice, spleen weight (Table 4); assay type: in vivo, Balb/CICR mice; conditions: 2% drug in coating solution, 20 days; for Weight of Spleen: average of 6 animals, infected glove control 1,627; for Weight Increase from Control: infected glove control 1,541
Method: In vivo tests were performed using Rauscher Leukemia Virus (RLV), a recognized retrovirus model (see, e.g., Nature 323, 467-469 (1986); Rupecht et al., Proc. Nat'l. Acad. Sci. USA 82, 7733-7737 (1985)) which is used by the FDA in testing drugs for use in treating AIDS. RLV was introduced into Balb/CICR mice in which it infects the spleen. The level of virus infectivity was quantified by determining the weight increase of the mouse spleen after 20 days from infection.
Each treatment was prepared by incubating 1.5 ml Dulbecco's Phosphate Buffered Saline (PBS) for 10 minutes at 37° C. in the finger tip of a latex glove. After incubation, as much as possible of the material was removed from the glove. 0.4 ml of PBS was then introduced into the glove and this was the sample which was introduced into the animals. […] Thus two of the groups only had four animals each that were considered.
[…] Each treatment was prepared by incubating 0.4 ml sterile PBS containing RVB3 (a strain of RLV) for 10 minutes in a glove tip which had previously had one of drugs or straight PBS incubated in it as described above. Three additional controls, a PBS containing glove with no virus, a virus sample not incubated in a glove, and a PBS sample not incubated in a glove were also run.

Gonococcus = test: Killing of Gonococcus (Table 6); assay type: cell-based; conditions: for Colony Counts in Culture: control >50,000
Method: Drugs were suspended in 5 ml of cultures containing […] of
gonoccccus and incubated. Aliquots were removed at 5 and 10 minute
intervals and subcultured for colony counts.

Candida albicans [4] = test: Rate of killing of Candida albicans on short exposure (Table 5A); assay type: cell-based; conditions: 10 minute incubation, control >50,000
Method: 3 ml of Saboraud broth containing 10^5 organism of Candida albicans
were incubated with the above drug. Aliquots were removed at 5 and 10
minute and were subcultured.

Candida albicans [5] = test: Antifungal efficacy of drug coated gloves against Candida albicans (Table 5B); assay type: cell-based; conditions: treated glove
Method: Treated glove fingers were draped over the top of culture
tubes with the treated side foring the inside of the cup
shape. Then 3.0 ml of TSB contining 10^3 organisms of Candida
albicans was dispensed in each finger and all placed in the
water bath shaker at 37° C. Samples were removed at 15
minutes, 1 hour, 2 hours, and 4 hours. They were diluted 1-
10 and plated on blood agar in 2.0 ml amounts.

Staph. aureus [6] = test: Antibacterial efficacy of drug coated gloves against Staph. aureus (Table 9); assay type: cell-based; conditions: 1% in coating solution
Method: The fingers of latex gloves were washed and dried. They were then sprayed with a fine mist spray of a coating solution to provide a uniform coating of solution on the glove surface, sufficient to provide complete wetting thereof without runoff. The coating solutions were prepared by dissolving 1% Silicate®Medical Adhesive Type A and 1% of the silicone MDX4-4159 in ethyl acetate, followed by dissolving and dispersing the chlorhexidine acetate and silver sulfadiazine, respectively, therein. The coating was air dried for 24 hours and the gloves tested using the following test:
Treated glove fingers were draped over the tops of culture tubes with the treated side with sprayed on coating forming the inside of the cup shape. Then 3.0 ml of TSB containing 10^4 colony forming units of Staph. aureus was dispensed in each finger and all placed in a water bath shaker at 37° C. Samples were removed at 15 minutes, 1 hour, 2 hours, and 4 hours, diluted 1-10, and the solution plated on blood agar in 2.0 ml amounts.

HIV-I = conditions: 10 minutes exposure; HIBICLENS or HIBISTAT dilutions; C3-44 cells; cited from earlier work

## benzalkonium chloride
HSV
  % Inhibition: 98%
  Titer: 5.2 × 10^4

## [H]/N=C(\N/C(=N/[H])NCCCCCCNC(=N)NC(=N)Nc1ccc(Cl)cc1)Nc1ccc(Cl)cc1 [CHA, chlorhexidine acetate]
macrophages
  % Kill: 100%
H9 cells
  condition of cells: Cells in terrible condition.
H9 cells; 50 (ml/ml as printed in text)
  % Viab (live cells/live & dead): 73%
H9 cells; 100 (ml/ml as printed in text)
  % Viab (live cells/live & dead): 20%
Staph. aureus [1]
  Days of Activity: 2 days
[2]; H9, 24 h, drug during incubation 10 μg/ml, final 2.5 μg/ml, read-out: % Infection v. Control
  % infection versus control at 2.5 µg/mL: 108%
[2]; drug during incubation 10 μg/ml, final 2.5 μg/ml
  % Infection: 3.35%

## C[C@H](CCC(=O)O)[C@H]1CC[C@H]2[C@@H]3CC[C@@H]4C[C@H](O)CC[C@]4(C)[C@H]3C[C@H](O)[C@]12C [NaDC, sodium deoxycholate]
[3]
  Weight of Spleen: 109 mg
  Weight Increase from Control: 23 mg
HSV
  % Inhibition: 0%
  Titer: 3.2 × 10^6
H9 cells; 50 (ml/ml as printed in text)
  % Viab (live cells/live & dead): 73%
  Viable Cells/ml: 1.2 × 10^6 Cells/ml
H9 cells; 100 (ml/ml as printed in text)
  % Viab (live cells/live & dead): 44%
  Viable Cells/ml: 2.0 × 10^6 Cells/ml
[2]; H9, 24 h, read-out: % Infection v. Control
  % infection versus control at 10 µg/mL: 108%
[2]; drug during incubation 40 μg/ml, final 10.0 μg/ml
  % Infection: 3.35%
Gonococcus; 1,000 μg/ml, 5 Minutes
  Colony Counts in Culture: 12,000
Gonococcus; 1,000 μg/ml, 10 Minutes
  Colony Counts in Culture: 4,000
Candida albicans [4]; concentration 1,000 (unit not given)
  Colony Counts in Culture: 8,000

## [H]/N=C(\N/C(=N/[H])NCCCCCCNC(=N)NC(=N)Nc1ccc(Cl)cc1)Nc1ccc(Cl)cc1 [Chlorhexidine, chlorhexidine]
[3]
  Weight of Spleen: 234 mg
  Weight Increase from Control: 148 mg
Candida albicans [5]; 1 Hour, control 2,000
  Colony Counts in Culture: 0
Candida albicans [5]; 2 Hours, control 4,000
  Colony Counts in Culture: 0
Candida albicans [5]; 4 Hours, control 6,000
  Colony Counts in Culture: 0
Candida albicans [5]; 15 Minutes, control 1,400
  Colony Counts in Culture: 75
HSV
  % Inhibition: 0%
  Titer: 2.7 × 10^6
Staph. aureus [6]; 15 min., control 12,000
  Colony Counts in Culture: 100
Staph. aureus [6]; 1 hour, control 15,000
  Colony Counts in Culture: 0
Staph. aureus [6]; 2 hours, control 20,000
  Colony Counts in Culture: 0
Staph. aureus [6]; 4 hours, control 50,000
  Colony Counts in Culture: 0
[2]; 10 μg/ml
  viral infectivity: did not itself reduce viral infectivity
[2]; low concentrations, combination compared with AgSD alone
  effectiveness for reducing infectivity of AIDS virus: no effect on infectivity of AIDS virus
Gonococcus; 100 μg/ml, 5 Minutes
  Colony Counts in Culture: 2,000
Gonococcus; 100 μg/ml, 10 Minutes
  Colony Counts in Culture: 10
Candida albicans [4]; concentration 100 (unit not given)
  Colony Counts in Culture: 30

## nonoxynol
Gonococcus; 0.1%, 5 Minutes
  Colony Counts in Culture: 40
Gonococcus; 0.1%, 10 Minutes
  Colony Counts in Culture: 70
Gonococcus; general statement
  effectiveness against gonococcus: effective against gonococcus
Candida albicans [4]; 0.2%
  Colony Counts in Culture: > 50,000

## N=C(NCCCCCCNC(=N)NC(=N)Nc1ccc(Cl)cc1)NC(=N)Nc1ccc(Cl)cc1.O=C(O)[C@H](O)[C@@H](O)[C@H](O)[C@H](O)CO.O=C(O)[C@H](O)[C@@H](O)[C@H](O)[C@H](O)CO [chlorohexidine gluconate]
HIV-I
  concentration not effective to prevent HIV-I infection: ≤ 0.01%

## CC(=O)O[C@H]1C[C@@]2(C)[C@@H](C[C@@H](O)[C@H]3[C@@]4(C)CC[C@@H](O)[C@@H](C)[C@@H]4CC[C@@]32C)/C1=C(\CCC=C(C)C)C(=O)O [Fusidic acid]
[3]
  Weight of Spleen: 107 mg
  Weight Increase from Control: 21 mg
